Reference: PubChem BioAssay (NCI)
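Interpolation was linear, between the two tested concentrations surrounding the appropriate level; five concentrations were tested over 48 hours in 96-well plates. TGI marks complete inhibition of growth.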

How the values were obtained:
Assay in all cases: NCI-60 cell line screen, 48 h
[1] = system: 786-0 renal
[2] = system: A498 renal
[3] = system: A549 NSCLC
[4] = system: ACHN renal
[5] = system: BT-549 breast
[6] = system: CAKI-1 renal
[7] = system: COLO 205 colon
[8] = system: EKVX NSCLC
[9] = system: HCC-2998 colon
[10] = system: HCT-116 colon
[11] = system: HCT-15 colon
[12] = system: HOP-62 NSCLC
[13] = system: HOP-92 NSCLC
[14] = system: HS 578T breast
[15] = system: HT29 colon
[16] = system: IGROV1 ovarian
[17] = system: K-562 leukemia
[18] = system: KM12 colon
[19] = system: LOX IMVI melanoma
[20] = system: M14 melanoma
[21] = system: MALME-3M melanoma
[22] = system: MCF7 breast
[23] = system: MDA-MB-231 breast
[24] = system: MDA-MB-435
[25] = system: MDA-N
[26] = system: MOLT-4 leukemia
[27] = system: NCI-H226 lung
[28] = system: NCI-H23 lung
[29] = system: NCI-H460 lung
[30] = system: NCI/ADR-RES ovarian
[31] = system: OVCAR-3 ovarian
[32] = system: OVCAR-4 ovarian
[33] = system: OVCAR-5 ovarian
[34] = system: OVCAR-8 ovarian
[35] = system: PC-3 prostate
[36] = system: RPMI-8226 leukemia
[37] = system: SF-268 CNS
[38] = system: SF-295 CNS
[39] = system: SF-539 CNS
[40] = system: SK-MEL-2 melanoma
[41] = system: SK-MEL-28 melanoma
[42] = system: SK-MEL-5 melanoma
[43] = system: SK-OV-3 ovarian
[44] = system: SN12C renal
[45] = system: SNB-19 CNS
[46] = system: SNB-75 CNS
[47] = system: SR leukemia
[48] = system: SW-620 colon
[49] = system: T-47D breast
[50] = system: TK-10 renal
[51] = system: U251 CNS
[52] = system: UACC-257 melanoma
[53] = system: UACC-62 melanoma
[54] = system: UO-31 renal
[55] = system: CCRF-CEM leukemia
[56] = system: DU-145 prostate
[57] = system: HL-60(TB) leukemia
[58] = system: NCI-H522 lung
[59] = system: RXF 393 renal

`CCCCc1ccc(N2C(=O)c3cc([N+](=O)[O-])cnc3S2(=O)=O)cc1` was tested, and the TGI [1] was greater than 100 µM, the TGI [2] was greater than 100 µM and the TGI [3] was greater than 100 µM. The TGI [4] was greater than 100 µM, the TGI [5] was greater than 100 µM and the TGI [6] was greater than 100 µM. It also gave a TGI [7] greater than 100 µM, a TGI [8] greater than 100 µM and a TGI [9] greater than 100 µM. For the same compound, the TGI [10] was greater than 100 µM, the TGI [11] was greater than 100 µM and the TGI [12] was greater than 100 µM. For the same compound, the TGI [13] was 8.03 µM, the TGI [14] was greater than 100 µM and the TGI [15] was greater than 100 µM. It also gave a TGI [16] greater than 100 µM, a TGI [17] greater than 100 µM and a TGI [18] greater than 100 µM. It also gave a TGI [19] greater than 100 µM, a TGI [20] greater than 100 µM and a TGI [21] greater than 100 µM. For the same compound, the TGI [22] was greater than 100 µM, the TGI [23] was greater than 100 µM and the TGI [24] was greater than 100 µM. It also gave a TGI [25] greater than 100 µM, a TGI [26] greater than 100 µM and a TGI [27] greater than 100 µM. It also gave a TGI [28] greater than 100 µM, a TGI [29] greater than 100 µM and a TGI [30] greater than 100 µM. The TGI [31] was greater than 100 µM, the TGI [32] was greater than 100 µM and the TGI [33] was greater than 100 µM. For the same compound, the TGI [34] was greater than 100 µM, the TGI [35] was greater than 100 µM and the TGI [36] was greater than 100 µM. It also gave a TGI [37] greater than 100 µM, a TGI [38] greater than 100 µM and a TGI [39] greater than 100 µM. The TGI [40] was 59 µM, the TGI [41] was greater than 100 µM and the TGI [42] was greater than 100 µM. It also gave a TGI [43] greater than 100 µM, a TGI [44] greater than 100 µM and a TGI [45] greater than 100 µM. For the same compound, the TGI [46] was greater than 100 µM, the TGI [47] was greater than 100 µM and the TGI [48] was greater than 100 µM. For the same compound, the TGI [49] was greater than 100 µM, the TGI [50] was greater than 100 µM and the TGI [51] was greater than 100 µM. The TGI [52] was greater than 100 µM, the TGI [53] was greater than 100 µM and the TGI [54] was greater than 100 µM.

`O=C1CCN(CCC(F)(F)C(F)(F)C(F)(F)C(F)(F)C(F)(F)C(F)(F)F)C(=S)N1CCC(F)(F)C(F)(F)C(F)(F)C(F)(F)C(F)(F)C(F)(F)F` gave a TGI [1] greater than 100 µM, a TGI [2] greater than 100 µM and a TGI [3] greater than 100 µM. For the same compound, the TGI [4] was greater than 100 µM, the TGI [5] was greater than 100 µM and the TGI [6] was greater than 100 µM. It also gave a TGI [55] greater than 100 µM, a TGI [7] greater than 100 µM and a TGI [56] greater than 100 µM. It also gave a TGI [8] greater than 100 µM, a TGI [9] greater than 100 µM and a TGI [10] greater than 100 µM. For the same compound, the TGI [57] was greater than 100 µM, the TGI [12] was greater than 100 µM and the TGI [13] was greater than 100 µM. For the same compound, the TGI [14] was greater than 100 µM, the TGI [15] was greater than 100 µM and the TGI [16] was greater than 100 µM. It also gave a TGI [17] greater than 100 µM, a TGI [18] greater than 100 µM and a TGI [20] greater than 100 µM. For the same compound, the TGI [21] was greater than 100 µM, the TGI [22] was greater than 100 µM and the TGI [23] was greater than 100 µM. The TGI [24] was greater than 100 µM, the TGI [25] was greater than 100 µM and the TGI [26] was greater than 100 µM. For the same compound, the TGI [27] was greater than 100 µM, the TGI [28] was greater than 100 µM and the TGI [29] was greater than 100 µM. It also gave a TGI [58] greater than 100 µM, a TGI [31] greater than 100 µM and a TGI [32] greater than 100 µM. It also gave a TGI [33] greater than 100 µM, a TGI [34] greater than 100 µM and a TGI [35] greater than 100 µM. It also gave a TGI [59] greater than 100 µM, a TGI [37] greater than 100 µM and a TGI [38] greater than 100 µM. It also gave a TGI [39] greater than 100 µM, a TGI [41] greater than 100 µM and a TGI [42] greater than 100 µM. The TGI [43] was greater than 100 µM, the TGI [44] was greater than 100 µM and the TGI [45] was greater than 100 µM. The TGI [46] was greater than 100 µM, the TGI [47] was greater than 100 µM and the TGI [48] was greater than 100 µM. For the same compound, the TGI [49] was greater than 100 µM, the TGI [50] was greater than 100 µM and the TGI [51] was greater than 100 µM. It also gave a TGI [52] greater than 100 µM, a TGI [53] greater than 100 µM and a TGI [54] greater than 100 µM.

With `COc1c(Cl)nc2ccccc2c1N=[N+]=[N-]` the TGI [1] was greater than 100 µM, the TGI [2] was 60.9 µM and the TGI [3] was greater than 100 µM. It also gave a TGI [4] greater than 100 µM, a TGI [5] of 94.8 µM and a TGI [6] greater than 100 µM. The TGI [55] was greater than 100 µM, the TGI [7] was greater than 100 µM and the TGI [56] was greater than 100 µM. For the same compound, the TGI [9] was greater than 100 µM, the TGI [10] was greater than 100 µM and the TGI [57] was greater than 100 µM. The TGI [12] was greater than 100 µM, the TGI [13] was greater than 100 µM and the TGI [14] was greater than 100 µM. It also gave a TGI [15] greater than 100 µM, a TGI [16] greater than 100 µM and a TGI [17] greater than 100 µM. The TGI [18] was greater than 100 µM, the TGI [19] was greater than 100 µM and the TGI [20] was greater than 100 µM. It also gave a TGI [21] greater than 100 µM, a TGI [22] greater than 100 µM and a TGI [23] greater than 100 µM. It also gave a TGI [24] greater than 100 µM, a TGI [25] greater than 100 µM and a TGI [26] greater than 100 µM. For the same compound, the TGI [28] was greater than 100 µM, the TGI [29] was greater than 100 µM and the TGI [31] was greater than 100 µM. It also gave a TGI [32] greater than 100 µM, a TGI [33] greater than 100 µM and a TGI [35] greater than 100 µM. The TGI [36] was greater than 100 µM, the TGI [59] was greater than 100 µM and the TGI [37] was greater than 100 µM. For the same compound, the TGI [38] was greater than 100 µM, the TGI [39] was greater than 100 µM and the TGI [41] was greater than 100 µM. For the same compound, the TGI [42] was greater than 100 µM, the TGI [43] was greater than 100 µM and the TGI [44] was greater than 100 µM. For the same compound, the TGI [45] was greater than 100 µM, the TGI [46] was greater than 100 µM and the TGI [47] was greater than 100 µM. For the same compound, the TGI [48] was greater than 100 µM, the TGI [49] was greater than 100 µM and the TGI [50] was greater than 100 µM. For the same compound, the TGI [51] was greater than 100 µM, the TGI [52] was greater than 100 µM and the TGI [53] was greater than 100 µM. The TGI [54] was greater than 100 µM.
